Read-outs that look alike come from different tables or passages of the source.
How the values were obtained:
human ETB receptor = molecular target: T1, human ETB receptor (Homo sapiens, UniProt P24530); assay: ERBA-B: [125I]-ET-1 binding, recombinant human ETB receptor expressed in CHO-K1 cells; settings: human cloned ETB receptor, read-out: ERBA-B IC50, human cloned receptor data
T1 construct: expressed in transfected cells; host or cells: CHO-K1 cells, pRc-CMW (so in the source) expression vector, electroporation; membranes used
T1 sequence (P24530 27-442): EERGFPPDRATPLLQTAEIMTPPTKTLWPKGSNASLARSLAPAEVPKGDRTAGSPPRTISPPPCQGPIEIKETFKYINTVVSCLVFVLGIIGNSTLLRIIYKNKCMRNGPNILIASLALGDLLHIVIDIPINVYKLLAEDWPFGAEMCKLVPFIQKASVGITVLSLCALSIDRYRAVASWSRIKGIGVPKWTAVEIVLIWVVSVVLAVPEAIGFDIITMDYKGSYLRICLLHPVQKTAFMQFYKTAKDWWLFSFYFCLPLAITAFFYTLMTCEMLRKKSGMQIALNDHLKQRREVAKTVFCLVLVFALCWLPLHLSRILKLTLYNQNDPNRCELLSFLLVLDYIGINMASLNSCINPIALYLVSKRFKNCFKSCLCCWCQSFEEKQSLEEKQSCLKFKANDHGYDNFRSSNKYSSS
Description: Count filters for radioactivity in gamma counter.
The above process has also been modified by using human recombinant CHO-K1 cells.
The tissue used for human ETB was recombinant human ETB receptor expressed in CHO-K1 cells (chinese hamster ovary cells). The gene for human ETB receptor was cloned and inserted into the pRc-CMW expression vector, then transfected into CHO-K1 cells by electroporation. For binding assays, membranes (0.7 mg protein) of CHO-K1 cells expressing recombinant human ETB receptor were used.
^d Human cloned receptor data

ETA = molecular target: T2, ETA (Oryctolagus cuniculus, UniProt A5A8K3)
T2 sequence (A5A8K3 21-427): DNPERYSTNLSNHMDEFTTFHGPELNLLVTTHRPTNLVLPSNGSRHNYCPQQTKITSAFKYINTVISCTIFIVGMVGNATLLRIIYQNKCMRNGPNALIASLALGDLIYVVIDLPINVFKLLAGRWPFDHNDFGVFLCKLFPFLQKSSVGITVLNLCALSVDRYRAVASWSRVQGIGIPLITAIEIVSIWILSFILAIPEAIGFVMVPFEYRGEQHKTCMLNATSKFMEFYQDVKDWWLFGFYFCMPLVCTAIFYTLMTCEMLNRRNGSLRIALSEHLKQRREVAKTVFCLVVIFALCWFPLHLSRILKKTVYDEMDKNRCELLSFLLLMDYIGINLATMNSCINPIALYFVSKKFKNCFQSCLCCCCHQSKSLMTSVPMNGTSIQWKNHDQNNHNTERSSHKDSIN

[1] = ERBA-A IC50, [125I]-ET-1, rabbit renal artery vascular smooth muscle cells
[2] = read-out: ERBA-A IC50, [125I]-ET-1, rabbit renal artery vascular smooth muscle cells

SMILES	IC50 (human ETB receptor)	IC50 (ETA; [1])	IC50 (ETA; [2])
COc1ccc(C2(O)OC(=O)C(c3cc(OC)cc(OC)c3)=C2Cc2cccc(F)c2)cc1 (stereo not drawn) [Example 129, 3-(3,5-Dimethoxphenyl)-4-(3-fluorobenzyl)-5-hydroxy-5-(4-methoxyphenyl)-5H-furan-2-one]	2.3 µM	0.072 µM	
COc1ccc(C2(O)OC(=O)C(c3cc(OC)cc(OC)c3)=C2Cc2cc(Cl)cc(Cl)c2)cc1 (stereo not drawn) [Example 132, 4-(3,5-Dichlorobenzyl)-3-(3,5-dimethoxyphenyl)-5-hydroxy-5-(4-methoxyphenyl)-5H-furan-2-one]	2.75 µM	0.07 µM	
COc1ccc(C2(O)OC(=O)C(c3ccc4c(c3)OCO4)=C2Cc2cncc3ccccc23)cc1 (stereo not drawn) [Example 161, 3-Benzo[1,3]dioxol-5-yl-5-hydroxy-4-isoquinolin-4-ylmethyl-5-(4-methoxyphenyl)-5H-furan-2-one]	3.2 µM	0.04 µM	
COc1ccc(C(=O)/C(Cc2ccc(OC)c(C)c2)=C(\C(=O)O)c2ccc3c(c2)OCO3)cc1 [Example 172, 2-Butenoic acid, 2-(1,3-benzodioxol-5-yl)-3-[(4-methoxy-3-methylphenyl)methyl]-4-(4-methoxyphenyl)-4-oxo-, (Z)-, ion(1-) compd. with 2-hydroxy-N,N,N-trimethylethanaminium (1:1)]	> 2.5 µM		7.2 µM
CC(C)Oc1ccc(C2(O)OC(=O)C(c3ccc4c(c3)OCO4)=C2Cc2ccccc2)cc1 (stereo not drawn) [Example 204, 3-Benzo[1,3]dioxol-5-yl-4-benzyl-5-hydroxy-5-(4-isopropoxyphenyl)-5H-furan-2-one]	10 µM	1.05 µM	
O=C1OC(O)(c2ccc(OCc3ccccc3)cc2)C(Cc2ccccc2)=C1c1ccc2c(c1)OCO2 (stereo not drawn) [Example 208, 3-Benzo[1,3]dioxol-5-yl-4-benzyl-5-(4-benzyloxyphenyl)-5-hydroxy-5H-furan-2-one]	5.4 µM	1.2 µM	
O=C1OC(O)(c2cccc(Cl)c2)C(Cc2ccccc2)=C1c1ccc2c(c1)OCO2 (stereo not drawn) [Example 235, 3-Benzo[1,3]dioxol-5-yl-4-benzyl-5-(3-chlorophenyl)-5-hydroxy-5H-furan-2-one]	> 2.5 µM	0.67 µM	
O=C1OC(O)(c2ccc3c(c2)OCO3)C(Cc2ccccc2)=C1c1ccc2c(c1)OCO2 (stereo not drawn) [Example 245, 3,5-Bis-benzo[1,3]dioxol-5-yl-4-benzyl-5-hydroxy-5H-furan-2-one]	2 µM	0.11 µM	
COc1ccc(C2(O)OC(=O)C(c3ccc4c(c3)OCO4)=C2Cc2cc(C)c(OC)cc2C)cc1 (stereo not drawn) [Example 251, 3-Benzo[1,3]dioxol-5-yl-5-hydroxy-4-(4-methoxy-2,5-dimethylbenzyl)-5-(4-methoxyphenyl)-5H-furan-2-one]	> 2.5 µM	0.006 µM	
COc1ccc(C2(O)OC(=O)C(c3ccc(OC)c(OC)c3)=C2Cc2ccccc2)cc1 (stereo not drawn) [Example 261, 4-Benzyl-3-(3,4-dimethoxyphenyl)-5-hydroxy-5-(4-methoxyphenyl)-5H-furan-2-one]	3.9 µM	0.16 µM	
COc1ccc(C2(O)OC(=O)C(c3cc(OC)cc(OC)c3)=C2Cc2cccc(C(=O)O)c2)cc1 (stereo not drawn) [Example 267, 3-[4-(3,5-Dimethoxyphenyl)-2-hydroxy-2-(4-methoxyphenyl)-5-oxo-2,5-dihydrof uran-3-ylmethyl]benzoic acid]	> 2.5 µM	0.71 µM	
COc1ccc(C2(O)OC(=O)C(c3cc(OC)cc(OC)c3)=C2Cc2ccc(Cl)cc2)cc1 (stereo not drawn) [Example 274]	> 2.5 µM		0.14 µM
COC(=O)c1cccc(CC2=C(c3ccc4c(c3)OCO4)C(=O)OC2(O)c2ccc(OC)cc2)c1 (stereo not drawn) [Example 286, Benzoic acid, 3-[[4-(1,3-benzodioxol-5-yl)-2,5-dihydro-2-hydroxy-2-(4-methoxyphenyl)-5-oxo-3-furanyl]methyl]-, methyl ester]	6 µM	0.0046 µM	
COc1ccc(C2(O)OC(=O)C(c3ccc4c(c3)OCO4)=C2Cc2ccc(CC(=O)O)cc2)cc1 (stereo not drawn) [Example 293, {4-[4-Benzo[1,3]dioxol-5-yl-2-hydroxyl-2-(4-methoxy-phenyl)-5-oxo-2,5-dihydro-furan-3-ylmethyl]-phenyl}-acetic acid]	> 2.5 µM	> 2.5 µM	
COc1ccc(C2(O)OC(=O)C(c3ccc4c(c3)OCO4)=C2Cc2cccc(CC(=O)O)c2)cc1 (stereo not drawn) [Example 295, {3-[4-Benzo[1,3]dioxol-5-yl-2-hydroxy-2-(4-methoxyphenyl)-5-oxo-2,5-dihydro-furan-3-ylmethyl]-phenyl}-acetic acid]	> 2.5 µM	0.13 µM	
CCCCCCCCOc1c(C)cc(CC2=C(c3ccc4c(c3)OCO4)C(=O)OC2(O)c2ccc(OC)cc2)cc1C (stereo not drawn) [Example 302, 3-Benzo[1,3]dioxol-5-yl-4-(3,5-dimethyl-4-octyloxybenzyl)-5-hydroxy-5-(4-methoxy-phenyl)-5H-furan-2-one]	2 µM	2.3 µM	

These reach a lower IC50 (human ETB receptor). Values come first.

IC50 (human ETB receptor)	IC50 (ETA; [1])	IC50 (ETA; [2])	SMILES
1.9 µM	0.39 µM		COc1ccc(C2(O)OC(=O)C(c3ccc4c(c3)OCO4)=C2Cc2ccc(-c3ccccc3)cc2)cc1 (stereo not drawn) [Example 162, 3-Benzo[1,3]dioxol-5-yl-4-biphenyl-4-ylmethyl-5-hydroxy-5-(4-methoxyphenyl) -5H-furan-2-one]
1.4 µM	0.0083 µM		C=CCOc1cc(CC2=C(c3ccc4c(c3)OCO4)C(=O)OC2(O)c2ccc(OC)cc2OC)ccc1OC (stereo not drawn) [Example 255, 4-(3-Allyloxy-4-methoxybenzyl)-3-benzo[1,3]dioxol-5-yl-5-(2,4-dimethoxyphenyl)-5-hydroxy-5H-furan-2-one]
0.76 µM	0.0064 µM		COc1ccc(C2(O)OC(=O)C(c3cc(OC)cc(OC)c3)=C2Cc2ccc(OC)c(C)c2)cc1 (stereo not drawn) [Example 272]
1.4 µM	0.04 µM		COC(=O)Cc1ccc(CC2=C(c3ccc4c(c3)OCO4)C(=O)OC2(O)c2ccc(OC)cc2)cc1 (stereo not drawn) [Example 291, {4-[4-Benzo[1,3]dioxol-5-yl-2-hydroxy-2-(4-methoxyphenyl)-5-oxo-2,5-dihydro-furan-3-ylmethyl]-phenyl}-acetic acid methyl ester]
0.78 µM	0.0034 µM		COC(=O)Cc1cccc(CC2=C(c3ccc4c(c3)OCO4)C(=O)OC2(O)c2ccc(OC)cc2)c1 (stereo not drawn) [Example 294, {3-[4-Benzo[1,3]dioxol-5-yl-2-hydroxy-2-(4-methoxyphenyl)-5-oxo-2,5-dihydro-furan-3-ylmethyl]-phenyl}-acetic acid methyl ester]
0.58 µM	0.006 µM		COc1ccc(C2(O)OC(=O)C(c3ccc4c(c3)OCO4)=C2Cc2cc(C)c(OC)c(C)c2)cc1 (stereo not drawn) [Example 296, 3-Benzo[1,3]dioxol-5-yl-5-hydroxy-4-(4-methoxy-3,5-dimethyl-benzyl)-5-(4-methoxy-phenyl)-5-H-furan-2-one]
0.87 µM	0.064 µM		COc1ccc(C2(O)OC(=O)C(c3ccc4c(c3)OCO4)=C2Cc2cc(C)c(OC(C)C)c(C)c2)cc1 (stereo not drawn) [Example 297, 3-Benzo[1,3]dioxol-5-yl-4-(3,5-dimethyl-4-isopropoxybenzyl)-5-hydroxy-5-(4-methoxy-phenyl)-5H-furan-2-one]
0.76 µM	0.0027 µM		COc1ccc(C2(O)OC(=O)C(c3ccc4c(c3)OCO4)=C2Cc2cc(OC)cc(OC)c2)cc1 (stereo not drawn) [Example 303, 3-Benzo[1,3]dioxol-5-yl-4-(3,5-dimethoxy-benzyl)-5-hydroxy-5-(4-methoxy-phenyl)-5H-furan-2-one]
0.95 µM	0.0048 µM		COc1ccc(C2(O)OC(=O)C(c3ccc4c(c3)OCO4)=C2Cc2ccc(OC)c(OC)c2)cc1 (stereo not drawn) [Example 304, 3-Benzo[1,3]dioxol-5-yl-4-(3,4-dimethoxy-benzyl)-5-hydroxy-5-(4-methoxy-phenyl)-5H-furan-2-one]
0.85 µM	0.002 µM		COc1ccc(C2(O)OC(=O)C(c3ccc4c(c3)OCO4)=C2Cc2cc(OC)c(OC)cc2OC)cc1 (stereo not drawn) [Example 306, 3Benzo[1,3]dioxol-5-yl-5-hydroxy-5-(4-methoxy-phenyl)-4-(2,4,5-trimethoxy-benzyl)-5H-furan-2-one]
1 µM	0.0059 µM		COc1ccc(C2(O)OC(=O)C(c3ccc4c(c3)OCO4)=C2Cc2cc(OC)ccc2OC)cc1 (stereo not drawn) [Example 307, 3-Benzo[1,3]dioxol-5-yl-4-(2,5-dimethoxy-benzyl)-5-hydroxy-5-(4-methoxy-phenyl)-5H-furan-2-one]

— patent US5691373A, “Nonpeptide endothelin antagonists I” (Warner-Lambert Company, priority 1995, dated 1997)
